Where two headings read alike, the source gives them in different places.
Assays:
[1] = target: T1, IKK (Homo sapiens, UniProt O14920); test: In vitro kinase assay: IKK immunoprecipitated from LPS-stimulated THP-1 cells, GST-IκBα phosphorylation; assay type: biochemical; conditions: 30 min pretreatment of LPS-activated IKK
T1 construct: IKK was immunoprecipitated with an IKKα/β antibody; endogenous in cells; host or cells: THP-1 cells stimulated with 1 μg/ml LPS; whole cell extract immunoprecipitated with an IKKα/β antibody (Santa Cruz)
Procedure: In vitro kinase assay: THP-1 cells (1×10^7 cells) were stimulated with 1 μg/ml LPS for the indicated time periods and whole cell extracts were prepared as described above. IKK was immunoprecipitated with an IKKα/β antibody (raised against amino acid 470-755 of IKKβ of human origin but partially cross-reactive with IKKα as detected by Western Blotting (Santa Cruz Biotechnology Inc.). Compound A was diluted in kinase buffer (25 mM HEPES pH 7.5, 10 mM magnesium acetate, 50 μM ATP) at the appropriate concentrations. The compound was added to the beads for 30 min. at 30° C. The kinase reaction was started by adding 2.5 μg of the GST-IκBα substrate (Santa Cruz Biotechnology Inc.) together with 2 μCi γ-^32P-ATP (Amersham Pharmacia Biotech) per sample. The reaction was allowed to proceed for 30 min. at 30° C., and the IKK activity was measured by the amount of radioactive-labelled GST-IκBα bands, quantified by the STORM860 Phospho-Imager.
A general problem with the kinase assay is prestimulation of the kinase. To achieve a value for the zero-point, the LPS-activated IKK mixture was incubated with 20 μM myricetin (Sigma-Aldrich), which is a known IKKβ inhibitor (S. H. Tsal et al., J. Cell Biochem. 74, 1999, pp. 606-615). This value was subtracted from the all other values. All data are expressed as percentage of the activity of the LPS-activated IKKβ kinase treated with 0.1% DMSO.

[2] = system: PC-3 Xenografts; test: PC-3 xenografts in nude mice, tumour growth; assay type: in vivo, NMRI nu/nu mice; conditions: PC-3 xenograft, 50 mg/kg, oral gavage
Procedure: (§1) All of the animal experiments were conducted according to the guidelines and ethical standards of the Danish Committee for Animal Experiments. Female NMRI nu/nu mice 6 weeks of age were purchased from M&B (Ry, Denmark). The mice were allowed an acclimatisation period of 1-3 weeks before start of the experiments. The nude mice were housed in Scantainers under semi-sterile conditions and all handling of mice was performed in a laminar flow bench.
PC-3 Xenografts. NMRI nu/nu mice were injected with 1×10^6 cells in 0.2 ml media s.c. in each flank and tumour size was measured as mentioned above. Compound A was given for four weeks by oral gavage from day 14 when the tumour size was about 12 mm^2. Each treatment group consisted of 10 mice.
(§2) Statistical Methods In the animal models, tumour sizes were expressed by the mean of the trends in each treatment group. The trend is the linear increment or tumour size, where tumour size is the square root of the (mean) area of the tumour(s). Comparison with controls was expressed as T/C % and calculated as follows:
A=(overall mean tumour size at baseline+mean trend of treatment*intended days of treatment) […]
Overall mean tumour size at baseline=pooling all treatments this is the mean of all baseline values. For each mouse the baseline value is calculated as the square root of the (mean) area of the tumour(s). […]

[3] = system: NF-κB; test: NF-κB-dependent luciferase reporter assay in LPS-stimulated THP-1 cells; assay type: cell-based, human; conditions: 1 μM compound, then 1 μg/ml LPS 5 h
Excerpt: Luciferase plasmids: The NF-κB-luciferase reporter plasmid (pBIIX) was a gift from Marja Jäättelä and Ida S. Mathiasen, the Danish Cancer Society. It was constructed by inserting a synthetic fragment with two copies of the sequence (5′-ACAGAGGGGACTTTCCGAGAG-3′ separated by four nucleotides (5′-ATCT-3′) in front of a mouse fos promoter in a plasmid pfLUC (a pBluescript-based plasmid with a firefly luciferase encoding sequence) (K. Saksela and D. Baltimore, Mol. Cell Biol. 13, 1993, pp. 3698-3705) The NF-κB binding site from the mouse Igκ light chain is underlined (M. Grilli et al., Int. Rev, Cytol. 143, 1993, pp. 1-62). A Renilla luciferase plasmid with a thymidine kinase promoter (pRL-TK vector) was used as a control for transfection efficiency and was obtained from Promega Inc., Madison, Wis. Plasmid DNA was prepared and purified using the QIAGEN EndoToxin-free Maxiprep-500 kit (QIAGEN, Hilden, Germany). […]
The cell lysate was assayed for luciferase activity using the Dual luciferase kit as described by the manufacturer (Promega). […] Firefly luciferase activity was corrected for differences in transfection efficiency by normalizing it to the measured Renilla luciferase activity.

[4] = system: NYH Xenografts; test: NYH xenografts in nude mice, tumour growth; assay type: in vivo, NMRI nu/nu mice
Procedure: as §1
NYH Xenografts. NMRI nu/nu mice were injected with 1×10^7 cells in 0.2 ml media s.c. in both flanks and tumour growth was measured twice weekly. The tumour area was used as expression of the tumour size and was calculated from two perpendicular diameters measured with a digital caliper. Compound A was given for fourteen consecutive days by oral gavage from day 4-6 when the tumour size was 24-30 mm^2. Each treatment group consisted of 10 mice.
as §2
A=(overall mean tumour size at baseline+mean trend of treatment*intended days of treatment)
B=(overall mean tumour size at baseline+mean trend of control*intended days of treatment)
Overall mean tumour size at baseline=pooling all treatments this is the mean of all baseline values. For each mouse the baseline value is calculated as the square root of the (mean) area of the tumour(s).
Significance was tested with the Bonferroni correction. This correction is a method for adjusting (lowering) the significance level so the overall finding of one significant difference due to chance is around 5 percent.

T1 sequence (O14920 whole entry): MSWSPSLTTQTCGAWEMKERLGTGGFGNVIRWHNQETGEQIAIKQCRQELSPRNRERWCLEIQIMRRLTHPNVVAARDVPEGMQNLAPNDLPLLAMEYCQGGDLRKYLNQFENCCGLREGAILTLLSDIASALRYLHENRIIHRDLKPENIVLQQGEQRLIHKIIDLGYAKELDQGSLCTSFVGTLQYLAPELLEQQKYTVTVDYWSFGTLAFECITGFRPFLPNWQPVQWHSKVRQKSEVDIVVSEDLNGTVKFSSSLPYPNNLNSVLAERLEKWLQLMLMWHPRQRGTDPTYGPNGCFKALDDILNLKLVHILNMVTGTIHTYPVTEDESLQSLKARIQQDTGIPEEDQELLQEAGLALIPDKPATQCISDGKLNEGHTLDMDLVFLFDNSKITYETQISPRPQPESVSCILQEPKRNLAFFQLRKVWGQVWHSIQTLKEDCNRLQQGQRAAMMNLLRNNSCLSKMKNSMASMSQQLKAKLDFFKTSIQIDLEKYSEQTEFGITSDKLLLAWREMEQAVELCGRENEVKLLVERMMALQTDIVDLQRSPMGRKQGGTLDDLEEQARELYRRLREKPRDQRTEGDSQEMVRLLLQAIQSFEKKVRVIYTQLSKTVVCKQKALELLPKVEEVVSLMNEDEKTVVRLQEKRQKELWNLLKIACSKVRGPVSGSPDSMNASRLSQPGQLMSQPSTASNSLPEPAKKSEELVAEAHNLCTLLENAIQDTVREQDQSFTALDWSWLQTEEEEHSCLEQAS
T1 sequence (O15111 whole entry partner): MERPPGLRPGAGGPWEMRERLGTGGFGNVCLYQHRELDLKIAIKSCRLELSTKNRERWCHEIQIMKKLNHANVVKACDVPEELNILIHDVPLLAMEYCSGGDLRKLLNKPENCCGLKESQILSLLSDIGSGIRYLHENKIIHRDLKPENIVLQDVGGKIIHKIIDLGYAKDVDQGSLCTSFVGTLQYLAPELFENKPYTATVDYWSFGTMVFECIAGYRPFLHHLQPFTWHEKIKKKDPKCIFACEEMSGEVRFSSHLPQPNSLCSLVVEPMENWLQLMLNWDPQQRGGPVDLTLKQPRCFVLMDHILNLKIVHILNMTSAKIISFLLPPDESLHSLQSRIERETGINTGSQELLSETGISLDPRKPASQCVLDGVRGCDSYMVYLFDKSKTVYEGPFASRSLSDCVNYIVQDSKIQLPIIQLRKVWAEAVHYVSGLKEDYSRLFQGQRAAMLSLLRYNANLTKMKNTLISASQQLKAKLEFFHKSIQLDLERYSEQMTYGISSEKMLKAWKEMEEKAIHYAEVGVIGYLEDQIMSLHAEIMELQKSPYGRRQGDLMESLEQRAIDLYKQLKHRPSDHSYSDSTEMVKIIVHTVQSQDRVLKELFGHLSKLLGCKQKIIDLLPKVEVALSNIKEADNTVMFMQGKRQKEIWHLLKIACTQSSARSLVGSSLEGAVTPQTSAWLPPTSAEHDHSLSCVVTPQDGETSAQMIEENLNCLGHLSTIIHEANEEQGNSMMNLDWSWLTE
T1 sequence (Q9Y6K9 whole entry partner): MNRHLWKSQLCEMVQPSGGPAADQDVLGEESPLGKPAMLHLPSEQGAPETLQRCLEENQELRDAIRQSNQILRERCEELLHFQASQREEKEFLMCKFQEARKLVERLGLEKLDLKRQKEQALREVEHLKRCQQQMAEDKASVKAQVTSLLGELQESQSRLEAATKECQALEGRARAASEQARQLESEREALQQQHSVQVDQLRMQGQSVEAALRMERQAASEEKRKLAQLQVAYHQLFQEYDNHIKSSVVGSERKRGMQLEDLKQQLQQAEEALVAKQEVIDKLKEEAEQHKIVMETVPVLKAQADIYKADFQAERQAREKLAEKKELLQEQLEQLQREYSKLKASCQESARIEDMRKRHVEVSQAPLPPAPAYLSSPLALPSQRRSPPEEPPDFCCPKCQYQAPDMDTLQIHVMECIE

## N#CNC(=Nc1ccncc1)NCCCCCCOc1ccc(Cl)cc1 [compound A, N-(6-(4-chlorophenoxy)hexyl)-N′-cyano-N″-(4-pyridyl)guanidine]
[1]; four independent experiments, read-out: IKK activity IC50, range of values
  IC50: 0.9 to 70 nM
[1]; mean of four independent experiments, read-out: IKK activity, mean IC50 value
  IC50: 8 nM
[2]
  In vivo xenografts in nude mice T/C (%): −5%
[3]; preincubation 2 h
  NF-κB-dependent luciferase activity, change: small decrease
[3]; preincubation 24 h, relative to DMSO-treated cells
  NF-κB-dependent induction of luciferase expression blocked: ~80%
[4]; NYH SCLC xenograft, 50 mg/kg, oral gavage
  In vivo xenografts in nude mice T/C (%): −100%
[4]; nude mice with NYH SCLC tumours, 14 days of treatment with 20 mg/kg
  NYH tumor growth in vivo (T/C in %): −44%
